The record followed here is US7300941B2, “Non-imidazole compounds” (Schering Corporation, priority 2000, dated 2007).

Several values for one entry are separate records, joined by “and”; a condition that tells them apart may be missing. Equal values may be shown once.

The target in the assay is T1, H3 receptors (Cavia porcellus, UniProt Q9JI35).
T1 construct: The brain tissue was homogenized with a solution of 50 mM Tris, pH 7.5; from tissue; host or cells: guinea pig brain membranes
T1 sequence (Q9JI35 whole entry): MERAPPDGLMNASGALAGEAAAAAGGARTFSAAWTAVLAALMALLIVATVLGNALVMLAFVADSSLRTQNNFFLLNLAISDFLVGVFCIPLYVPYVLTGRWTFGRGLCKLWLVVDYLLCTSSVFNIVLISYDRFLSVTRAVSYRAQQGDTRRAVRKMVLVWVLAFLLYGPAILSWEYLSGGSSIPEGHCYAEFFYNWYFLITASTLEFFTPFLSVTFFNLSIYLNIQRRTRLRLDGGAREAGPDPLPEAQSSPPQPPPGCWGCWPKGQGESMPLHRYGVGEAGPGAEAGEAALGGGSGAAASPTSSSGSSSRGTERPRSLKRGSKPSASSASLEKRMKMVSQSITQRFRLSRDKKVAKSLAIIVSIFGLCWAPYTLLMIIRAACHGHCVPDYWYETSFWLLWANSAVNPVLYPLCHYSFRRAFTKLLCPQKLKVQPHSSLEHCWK
Briefly: H3-Receptor Binding Assay. Conditions: guinea pig brain membranes; 3 nM [3H]R-α-methyl histamine or 3 nM [3H]Nα-methyl histamine; 30° C., 30 min. The method, then: H3-Receptor Binding Assay
The source of the H3 receptors in this experiment was guinea pig brain. The animals weighed 400-600 g. The brain tissue was homogenized with a solution of 50 mM Tris, pH 7.5. The final concentration of tissue in the homogenization buffer was 10% w/v. The homogenates were centrifuged at 1,000×g for 10 min. in order to remove clumps of tissue and debris. The resulting supernatants were then centrifuged at 50,000×g for 20 min. in order to sediment the membranes, which were next washed three times in homogenization buffer (50,000×g for 20 min. each). The membranes were frozen and stored at −70° C. until needed.
All compounds to be tested were dissolved in DMSO and then diluted into the binding buffer (50 mM Tris, pH 7.5) such that the final concentration was 2 μg/ml with 0.1% DMSO. Membranes were then added (400 μg of protein) to the reaction tubes. The reaction was started by the addition of 3 nM [^3H]R-α-methyl histamine (8.8 Ci/mmol) or 3 nM [^3H]N^α-methyl histamine (80 Ci/mmol) and continued under incubation at 30° C. for 30 min. Bound ligand was separated from unbound ligand by filtration, and the amount of radioactive ligand bound to the membranes was quantitated by liquid scintillation spectrometry. All incubations were performed in duplicate and the standard error was always less than 10%. Compounds that inhibited more than 70% of the specific binding of radioactive ligand to the receptor were serially diluted to determine a Ki (nM).
Broadly, the Ki is a measure of affinity in units of concentration, obtained from inhibition or displacement. Read a high Ki as a looser hold on the target. For `Nc1cc(CN2CCC(C(=O)N3CCC(c4noc5cc(F)ccc45)CC3)CC2)ccn1` [Compound 23], the Ki was in the range of 0.25 to 33 nM.

On to `Nc1cc(CN2CCC(C(=O)N3CCC(C(=O)c4ccccn4)CC3)CC2)ccn1` [Compound 30], for which the Ki was 0.25 to 33 nM and 0.25 to 16 nM.

With `CON=C(c1ccccn1)C1CCN(C(=O)C2CCN(Cc3ccnc(N)c3)CC2)CC1` [Compound 31], the Ki was 0.25 to 33 nM and 0.25 to 16 nM.

`CO/N=C(/c1ccccn1)C1CCN(C(=O)C2CCN(Cc3ccnc(N)c3)CC2)CC1` [Compound 32]: the Ki is 0.25 to 33 nM and 0.25 to 16 nM and 0.83 nM.

As to `CO/N=C(\c1ccccn1)C1CCN(C(=O)C2CCN(Cc3ccnc(N)c3)CC2)CC1` [Compound 33], the Ki was 0.25 to 33 nM and 0.25 to 16 nM.

In turn, `CON=C(c1ccccn1)C1CCN(C(=O)C2CCN(C(C)c3ccnc(N)c3)CC2)CC1` (stereo not drawn) [Compound 53] displayed a Ki of 0.25 to 33 nM.

As to `CO/N=C(/c1ccccn1)C1CCN(C(=O)C2CCN([C@@H](C)c3ccnc(N)c3)CC2)CC1` [Compound 54], the Ki is 0.25 to 33 nM and 0.25 to 16 nM and 1.05 to 9.75 nM.

On to `CO/N=C(/c1ccccn1)C1CCN(C(=O)C2CCN([C@H](C)c3ccnc(N)c3)CC2)CC1` [Compound 55], for which the Ki was 0.25 to 33 nM and 0.25 to 16 nM and 1.05 to 9.75 nM.

In the case of `CO/N=C(\c1ccccn1)C1CCN(C(=O)C2CCN([C@@H](C)c3ccnc(N)c3)CC2)CC1` [Compound 56], the Ki is 0.25 to 33 nM and 0.25 to 16 nM.

Molecule `CO/N=C(\c1ccccn1)C1CCN(C(=O)C2CCN([C@H](C)c3ccnc(N)c3)CC2)CC1` [Compound 57A] had a Ki of 0.25 to 33 nM.

In turn, `CON=C(c1ccc(Cl)cc1)C1CCN(C(=O)C2(O)CCN(Cc3ccnc(N)c3)CC2)CC1` [Compound 59] displayed a Ki of 0.25 to 33 nM.

Take `CON=C(c1ccc[n+]([O-])c1)C1CCN(C(=O)C2CCN(Cc3ccnc(N)c3)CC2)CC1` [Compound 92]: the Ki is 0.25 to 33 nM.

For the molecule `CCON=C(c1ccc(Cl)cc1)C1CCN(C(=O)C2CCN(Cc3ccnc(N)c3)CC2)CC1` [Compound 212], the Ki fell in the range of 0.25 to 33 nM.

Regarding `CON=C(c1ccc(Cl)cc1)C1CCN(C(=O)N2CCN(Cc3ccnc(N)c3)CC2)CC1` [Compound 215], the Ki is 0.25 to 33 nM.

As to `CON=C(c1cc(Cl)cc(Cl)c1)C1CCN(C(=O)C2CCN(Cc3ccnc(N)c3)CC2)CC1` [Compound 218], the Ki was in the range of 0.25 to 33 nM.

For the molecule `CON=C(c1ccccc1F)C1CCN(C(=O)C2CCN(Cc3ccnc(N)c3)CC2)CC1` [Compound 219], the Ki lay in the range of 0.25 to 33 nM.

The molecule `CON=C(c1ccccc1Cl)C1CCN(C(=O)C2CCN(Cc3ccnc(N)c3)CC2)CC1` [Compound 220] gave a Ki of 0.25 to 33 nM.

As for `CO/N=C(\c1ccc(Cl)cc1)C1CCN(C(=O)C2CCN(Cc3ccnc(N)c3)CC2)CC1` [Compound 224], the Ki was in the range of 0.25 to 33 nM.

For the molecule `CO/N=C(/c1ccc(Cl)cc1)C1CCN(C(=O)C2CCN(Cc3ccnc(N)c3)CC2)CC1` [Compound 225], the Ki was 0.25 to 33 nM and 0.25 to 16 nM.

Take `CO/N=C(/c1ccc(C(F)(F)F)cc1)C1CCN(C(=O)C2CCN(Cc3ccnc(N)c3)CC2)CC1` [Compound 226]: the Ki was 0.25 to 33 nM.

As for `CON=C(c1ccc(Cl)cc1)C1CCN(C(=O)C2CCN(C(C)c3ccnc(N)c3)CC2)CC1` (stereo not drawn) [Compound 227], the Ki lay within 0.25 to 33 nM.

Take `CCON=C(c1ccc(F)cc1F)C1CCN(C(=O)C2CCN(Cc3ccnc(N)c3)CC2)CC1` [Compound 229]: the Ki is 0.25 to 33 nM.

As for `CON=C(c1ccc(Cl)cc1Cl)C1CCN(C(=O)C2CCN(C(C)c3ccnc(N)c3)CC2)CC1` (stereo not drawn) [Compound 233], the Ki was in the range of 0.25 to 33 nM.

As for `CON=C(c1ccsc1)C1CCN(C(=O)C2CCN(Cc3ccnc(N)c3)CC2)CC1` [Compound 235], the Ki lay in the range of 0.25 to 33 nM.

As for `Nc1cc(CN2CCC(C(=O)N3CCC(C(=NO)c4ccccn4)CC3)CC2)ccn1` [Compound 237], the Ki is 0.25 to 33 nM and 0.25 to 16 nM.

`CON=C(c1ccccc1)C1CCN(C(=O)C2CCN(Cc3ccnc(N)c3)CC2)CC1` [Compound 238] displayed a Ki of 0.25 to 33 nM.

For `CCO/N=C(/c1ccccn1)C1CCN(C(=O)C2CCN(Cc3ccnc(N)c3)CC2)CC1` [Compound 246A], the Ki was 0.25 to 33 nM and 0.25 to 16 nM.

Molecule `CCON=C(c1ccccn1)C1CCN(C(=O)C2CCN(Cc3ccnc(N)c3)CC2)CC1` [Compound 246] returned a Ki of 0.25 to 33 nM.

`Nc1cc(CN2CCC(C(=O)N3CCC(c4noc5ncccc45)CC3)CC2)ccn1` [Compound 247] had a Ki of 0.25 to 33 nM.

`CON=C(c1ncccn1)C1CCN(C(=O)C2CCN(Cc3ccnc(N)c3)CC2)CC1` [Compound 248] displayed a Ki of 0.25 to 33 nM.

`CON=C(c1cccc(S(=O)(=O)N(C)C)c1)C1CCN(C(=O)C2CCN(Cc3ccnc(N)c3)CC2)CC1` [Compound 251] gave a Ki of 0.25 to 33 nM.

On to `CO/N=C(/c1csc(C)n1)C1CCN(C(=O)C2CCN(Cc3ccnc(N)c3)CC2)CC1` [Compound 253A], for which the Ki is 0.25 to 33 nM and 0.25 to 16 nM and 1.05 to 9.75 nM.

As for `CON=C(c1csc(C)n1)C1CCN(C(=O)C2CCN(Cc3ccnc(N)c3)CC2)CC1` [Compound 253], the Ki was in the range of 0.25 to 33 nM.

`CO/N=C(/c1ccc(Cl)cc1)C1CCN(C(=O)C2CCN(Cc3ccncc3)CC2)CC1` [Compound 273] returned a Ki of 0.25 to 16 nM.

As to `O=C(C1CCN(Cc2ccncc2)CC1)N1CCC(/C(=N\O)c2ccc(F)cc2)CC1` [Compound 275], the Ki is 0.25 to 33 nM.

In turn, `CON=C(c1ccc(Cl)cc1)C1CCN(C(=O)C2CCN(Cc3ccnc(N)c3)CC2)CC1` [Compound 280] came in with a Ki of 0.25 to 16 nM.

With `CO/N=C(/c1ccccn1)C1CCN(C(=O)C2CCN(Cc3cnc(N)nc3)CC2)CC1` [Compound 287], the Ki is 0.25 to 33 nM and 0.25 to 16 nM and 1.05 to 9.75 nM.

With `CON=C(c1ccccn1)C1CCN(C(=O)C2CCN(Cc3ccncc3N)CC2)CC1` [Compound 296], the Ki is 0.25 to 33 nM and 0.25 to 16 nM.

Regarding `CO/N=C(/c1ccccn1)C1CN(C(=O)C2CCN(Cc3ccnc(N)c3)CC2)C1` [Compound 301], the Ki is 0.25 to 33 nM and 0.25 to 16 nM.

In the case of `CON=C(C1CCCCC1)C1CCN(C(=O)C2CCN(Cc3ccnc(N)c3)CC2)CC1` [Compound 309], the Ki is 0.25 to 33 nM and 0.25 to 16 nM.

On to `Nc1cc(CN2CCC(C(=O)N3CCC(C(=O)c4ccc5ccccc5n4)CC3)CC2)ccn1` [Compound 312], for which the Ki is 0.25 to 33 nM and 0.25 to 16 nM.

`Nc1cc(CN2CCC(C(=O)N3CCC(/C(=N\OCC(F)(F)F)c4ncccc4F)CC3)CC2)ccn1` [Compound 320] gave a Ki of 1.05 to 9.75 nM.
